Results on 52 compounds are retold here after US20250236613A1, “SARM1 MODULATORS, PREPARATIONS, AND USES THEREOF” (SIRONAX LTD., priority 2021, published 2025).

Molecules are shown by their SMILES.

Sequence of SARM1 (50-724) (Q6SZW1 50-724): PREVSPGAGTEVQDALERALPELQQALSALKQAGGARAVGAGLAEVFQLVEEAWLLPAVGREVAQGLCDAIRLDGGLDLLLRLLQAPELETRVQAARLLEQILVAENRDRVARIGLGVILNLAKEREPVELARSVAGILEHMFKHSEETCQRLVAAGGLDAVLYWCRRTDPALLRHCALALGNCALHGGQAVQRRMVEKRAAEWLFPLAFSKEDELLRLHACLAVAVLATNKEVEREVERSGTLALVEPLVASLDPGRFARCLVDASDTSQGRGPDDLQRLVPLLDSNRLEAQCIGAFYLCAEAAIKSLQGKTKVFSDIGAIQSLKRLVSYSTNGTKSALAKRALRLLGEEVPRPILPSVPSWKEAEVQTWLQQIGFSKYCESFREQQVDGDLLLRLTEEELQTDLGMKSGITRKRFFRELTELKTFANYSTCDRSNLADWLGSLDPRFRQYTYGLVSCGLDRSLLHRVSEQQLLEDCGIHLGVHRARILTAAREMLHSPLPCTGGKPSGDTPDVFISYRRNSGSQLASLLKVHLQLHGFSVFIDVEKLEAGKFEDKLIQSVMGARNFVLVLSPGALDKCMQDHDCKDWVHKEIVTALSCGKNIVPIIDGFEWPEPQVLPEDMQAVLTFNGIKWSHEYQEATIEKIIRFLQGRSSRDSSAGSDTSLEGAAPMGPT

The assay deals with SARM1 (50-724) (Homo sapiens (Human), UniProt Q6SZW1). The assay is described as follows: SARM1 (50-724) enzymatic assay. Type of assay: biochemical. The note with it: SARM1 inhibitory activity; 2 nM SARM1 (50-724), 200 μM NMN activator, 100 μM NAD+ substrate, 1 h, LC-MS/MS. The protocol:
The enzymatic assay was performed in a 384-well plate using Dulbecco's PBS buffer as the reaction buffer. Purified SARM1 (50-724) with a final concentration of 2 nM was pre-incubated with the test compound at 1% DMSO final assay concentration for 15 min at room temperature. The reaction was initiated by adding the mixture of 200 μM NMN as activator and 100 μM NAD^+ as substrate. After 1 h of incubation at room temperature, the reaction was terminated with 10 times volume of 70% acetonitrile, then centrifuged at 3800 rpm for 10 min. The samples were analyzed using LC-MS/MS after diluted to the proper concentration by 10 mM ammonium acetate (pH 9.75).
Broadly, the IC50 is the concentration needed to halve the response being measured. Compound `Cc1ccncc1-c1ccc2[nH]c(=S)oc2c1` [Compound 75, 6-(4-methylpyridin-3-yl)benzo[d]oxazole-2(3H)-thione] gave an IC50 of less than 5 µM.

Compound `Cc1ccncc1-c1ccc2[nH]c(=O)sc2c1` [Compound 86, 6-(4-methylpyridin-3-yl)benzo[d]thiazol-2(3H)-one] yielded an IC50 of less than 5 µM.

Compound `Cc1ccncc1-c1ccc2oc(=O)[nH]c2c1` [Compound 52, 5-(4-methylpyridin-3-yl)benzo[d]oxazol-2(3H)-one] yielded an IC50 of 5 to 15 µM.

`Cc1ccncc1-c1ccc2c(c1)COC(=O)N2` [Compound 59, 6-(4-methylpyridin-3-yl)-1,4-dihydro-2H-benzo[d][1,3]oxazin-2-one] returned an IC50 of less than 5 µM.

For the compound `Cc1ccncc1-c1cccc(O)c1F` [Compound 13, 2-fluoro-3-(4-methylpyridin-3-yl)phenol], the half-inhibitory concentration (IC50) was less than 5 µM.

Compound `Cc1ccncc1-c1ccc2c(c1)OCCC(=O)N2` [Compound 85, 8-(4-methylpyridin-3-yl)-2,3-dihydrobenzo[b][1,4]oxazepin-4(5H)-one] showed an IC50 of 5 to 15 µM.

In turn, `Cc1ccncc1-c1ccc(NC(=N)N)cc1` [Compound 69, 1-(4-(4-methylpyridin-3-yl)phenyl)guanidine] registered an IC50 of 15 to 30 µM.

Turning to `Cc1ccncc1-c1cncc(O)c1` [Compound 56, 4′-methyl-[3,3′-bipyridin]-5-ol], the IC50 was in the range of 5 to 15 µM.

The compound `Cc1ccncc1-c1ccc2c(c1)COCC(=O)N2` [Compound 80, 7-(4-methylpyridin-3-yl)-1,5-dihydrobenzo[e][1,4]oxazepin-2(3H)-one] displayed an IC50 of less than 5 µM.

`Cc1ccncc1-c1ccc(O)cc1F` [Compound 12, 3-fluoro-4-(4-methylpyridin-3-yl)phenol] returned an IC50 greater than 30 µM.

In turn, `Cc1ccncc1-c1ccc2[nH]c(=O)oc2c1` [Compound 40, 6-(4-methylpyridin-3-yl)benzo[d]oxazol-2(3H)-one] returned an IC50 of less than 5 µM.

`Cc1ccncc1-c1ccc2c(c1F)NC(=O)C2=O` [Compound 37, 7-fluoro-6-(4-methylpyridin-3-yl)indoline-2,3-dione]: the half-inhibitory concentration (IC50) lay within 5 to 15 µM.

With `Cc1ccncc1-c1ccc2[nH]c(=O)oc2c1F` [Compound 91, 7-fluoro-6-(4-methylpyridin-3-yl)benzo[d]oxazol-2(3H)-one], the IC50 was 15 to 30 µM.

Turning to `Cc1ccncc1-c1ccc(F)c(O)c1F` [Compound 35, 2,6-difluoro-3-(4-methylpyridin-3-yl)phenol], the IC50 was greater than 30 µM.

As for `Cc1ccncc1-c1ccc2c(c1)CNC(=O)N2` [Compound 46, 6-(4-methylpyridin-3-yl)-3,4-dihydroquinazolin-2(1H)-one], the IC50 is greater than 30 µM.

In turn, `O=c1[nH]c2ccc(-c3cc(Nc4ccccc4)cnn3)cc2o1` [Compound 112, 6-(5-(phenylamino)pyridazin-3-yl)benzo[d]oxazol-2(3H)-one] gave a 50% inhibitory concentration (IC50) of less than 5 µM.

`Cc1ccncc1-c1ccc(O)c(Br)c1` [Compound 15, 2-bromo-4-(4-methylpyridin-3-yl)phenol] yielded an IC50 of less than 5 µM.

In turn, `CN(c1ccccc1)c1cncc(-c2ccc3[nH]c(=O)oc3c2)c1` [Compound 109, 6-(5-(methyl(phenyl)amino)pyridin-3-yl)benzo[d]oxazol-2(3H)-one] displayed an IC50 of less than 5 µM.

With `O=c1[nH]c2ccc(-c3cccnc3)cc2o1` [Compound 84, 6-(pyridin-3-yl)benzo[d]oxazol-2(3H)-one], the half-maximal inhibitory concentration (IC50) was less than 5 µM.

`Cc1ccncc1-c1ccc(CN)cc1` [Compound 8, (4-(4-methylpyridin-3-yl)phenyl)methanamine] displayed an IC50 of less than 5 µM.

The compound `O=c1[nH]c2ccc(-c3cncc(Nc4ccc(F)cc4)c3)cc2o1` [Compound 100, 6-(5-((4-fluorophenyl)amino)pyridin-3-yl)benzo[d]oxazol-2(3H)-one] yielded an IC50 of less than 5 µM.

`Cc1ccncc1-c1cccc(O)c1` [Compound 4, 3-(4-methylpyridin-3-yl)phenol] had an IC50 of less than 5 µM.

The compound `Cc1ccncc1-c1ccc2cc[nH]c2c1` [Compound 23, 6-(4-methylpyridin-3-yl)-1H-indole] displayed an IC50 of 15 to 30 µM.

As to `Cc1ccncc1-c1ccc2[nH]c(=O)n(C)c2c1` [Compound 57, 1-methyl-6-(4-methylpyridin-3-yl)-1,3-dihydro-2H-benzo[d]imidazol-2-one], the IC50 lay in the range of 5 to 15 µM.

`Cc1ccnnc1-c1ccc2[nH]c(=O)oc2c1` [Compound 94, 6-(4-methylpyridazin-3-yl)benzo[d]oxazol-2(3H)-one]: the IC50 is less than 5 µM.

In the case of `N#Cc1cccc(Nc2cncc(-c3ccc4[nH]c(=O)oc4c3)c2)c1` [Compound 107, 3-((5-(2-oxo-2,3-dihydrobenzo[d]oxazol-6-yl)pyridin-3-yl)amino)benzonitrile], the IC50 was less than 5 µM.

In the case of `Cc1ccncc1-c1ccc2c(c1)NC(=O)NC2` [Compound 72, 7-(4-methylpyridin-3-yl)-3,4-dihydroquinazolin-2(1H)-one], the IC50 is 5 to 15 µM.

In turn, `Cc1ccncc1-c1cccc(O)c1C` [Compound 26, 2-methyl-3-(4-methylpyridin-3-yl)phenol] had an IC50 greater than 30 µM.

For the compound `CNc1cncc(-c2ccc3[nH]c(=O)oc3c2)c1` [Compound 110, 6-(5-(methylamino)pyridin-3-yl)benzo[d]oxazol-2(3H)-one], the IC50 was less than 5 µM.

The compound `Cc1cc(-c2cnccc2C)ccc1O` [Compound 28, 2-methyl-4-(4-methylpyridin-3-yl)phenol] displayed a concentration for half-maximal inhibition (IC50) of less than 5 µM.

Consider `Cc1ccncc1-c1ccc2[nH]cnc2c1` [Compound 25, 5-(4-methylpyridin-3-yl)-1H-benzo[d]imidazole], for which the IC50 is less than 5 µM.

In turn, `COc1ccncc1-c1cc[nH]c(=O)c1` [Compound 3, 4-methoxy-[3,4′-bipyridin]-2′(1′H)-one] gave an IC50 of less than 5 µM.

On to `Cc1ccncc1-c1ccc2[nH]nc(N)c2c1` [Compound 65, 5-(4-methylpyridin-3-yl)-1H-indazol-3-amine], for which the IC50 was greater than 30 µM.

`Cc1cc(Cl)ncc1-c1ccc2[nH]c(=O)oc2c1` [Compound 66, 6-(6-chloro-4-methylpyridin-3-yl)benzo[d]oxazol-2(3H)-one] came in with an IC50 of 15 to 30 µM.

For `Cc1ccncc1-c1ccc2c(c1)N(C)S(=O)(=O)N2` [Compound 70, 1-methyl-6-(4-methylpyridin-3-yl)-1,3-dihydrobenzo[c][1,2,5]thiadiazole 2,2-dioxide], the IC50 is 15 to 30 µM.

As to `Cc1ccncc1-c1cc(O)cc(F)c1` [Compound 20, 3-fluoro-5-(4-methylpyridin-3-yl)phenol], the concentration for half-maximal inhibition (IC50) was less than 5 µM.

For the compound `Cc1ccncc1-c1cnc2[nH]ncc2c1` [Compound 48, 5-(4-methylpyridin-3-yl)-1H-pyrazolo[3,4-b]pyridine], the IC50 was 15 to 30 µM.

The compound `Cc1ccncc1-c1ccc(F)c(O)c1` [Compound 19, 2-fluoro-5-(4-methylpyridin-3-yl)phenol] displayed an IC50 of 5 to 15 µM.

Compound `Cc1ccncc1-c1ccc2[nH]ccc2c1` [Compound 21, 5-(4-methylpyridin-3-yl)-1H-indole] displayed an IC50 of less than 5 µM.

With `Cc1ccncc1-c1ccc2c(c1)C(F)(F)C(=O)N2` [Compound 81, 3,3-difluoro-5-(4-methylpyridin-3-yl)indolin-2-one], the IC50 was less than 5 µM.

As to `O=c1[nH]c2ccc(-c3cncc(Nc4cccnn4)c3)cc2o1` [Compound 118, 6-(5-(pyridazin-3-ylamino)pyridin-3-yl)benzo[d]oxazol-2(3H)-one], the IC50 is less than 5 µM.

The compound `Cc1ccncc1-c1ccc2[nH]ncc2n1` [Compound 50, 5-(4-methylpyridin-3-yl)-1H-pyrazolo[4,3-b]pyridine] displayed an IC50 of 5 to 15 µM.

Compound `Cc1ccncc1-c1ccc(Br)c(O)c1` [Compound 17, 2-bromo-5-(4-methylpyridin-3-yl)phenol] came in with an IC50 of less than 5 µM.

As for `Cc1ccncc1-c1ccc(O)c(Cl)c1` [Compound 31, 2-chloro-4-(4-methylpyridin-3-yl)phenol], the IC50 is less than 5 µM.

Regarding `O=c1[nH]c2ccc(-c3cncc(Nc4cccc(F)c4)c3)cc2o1` [Compound 101, 6-(5-((3-fluorophenyl)amino)pyridin-3-yl)benzo[d]oxazol-2(3H)-one], the IC50 was less than 5 µM.

As for `Cc1ccncc1-c1cccc(O)c1Cl` [Compound 27, 2-chloro-3-(4methylpyridin-3-yl)phenol], the IC50 is greater than 30 µM.

Compound `O=c1[nH]c2ccc(-c3cncc(Nc4ccc(Cl)cc4)c3)cc2o1` [Compound 104, 6-(5-((4-chlorophenyl)amino)pyridin-3-yl)benzo[d]oxazol-2(3H)-one] displayed an IC50 of less than 5 µM.

Compound `Cc1ccncc1-c1ccc2[nH]nc(C(F)(F)F)c2c1` [Compound 93, 5-(4-methylpyridin-3-yl)-3-(trifluoromethyl)-1H-indazole] registered an IC50 of 5 to 15 µM.

In turn, `CC(C)c1cccc(Nc2cncc(-c3ccc4[nH]c(=O)oc4c3)c2)c1` [Compound 103, 6-(5-((3-isopropylphenyl)amino)pyridin-3-yl)benzo[d]oxazol-2(3H)-one] had an IC50 of less than 5 µM.

`Cc1ccncc1-c1ccc2[nH]nc(F)c2c1` [Compound 68, 3-fluoro-5-(4-methylpyridin-3-yl)-1H-indazole] returned an IC50 of less than 5 µM.

Take `O=c1[nH]c2ccc(-c3cncc(Nc4cccnc4)c3)cc2o1` [Compound 105, 6-(5-(pyridin-3-ylamino)pyridin-3-yl)benzo[d]oxazol-2(3H)-one]: the 50% inhibitory concentration (IC50) is less than 5 µM.

As for `Cc1ccncc1-c1cc(O)cc(C(F)(F)F)c1` [Compound 63, 3-(4-methylpyridin-3-yl)-5-(trifluoromethyl)phenol], the IC50 was less than 5 µM.
